PMC3323550, “Functional Characterization of EngA^MS, a P-Loop GTPase of Mycobacterium smegmatis” (PLoS ONE, 2012)
Values belong to the molecule of their own block, whether it stands above or below them.

Assays:
[1] = target: T1, EngA^MS (MSMEG_3738) (Mycolicibacterium smegmatis, UniProt A0QYP9, D154N); experiment: fluorescent mant-nucleotide binding assay, single concentration; conditions: 4 µM protein, 1 µM mant-GDP, 40 mM Tris-Cl pH 8.0, 2 mM MgCl2, 40% glycerol, room temperature; labelled compound
T1 construct: gene der

[2] = target: T2, EngA^MS (MSMEG_3738) (Mycolicibacterium smegmatis, UniProt A0QYP9, D331N); experiment: as above; conditions: 4 µM protein, 1 µM mant-GDP, 40 mM Tris-Cl pH 8.0, 2 mM MgCl2, 40% glycerol, room temperature; labelled compound
T2 construct: gene der

[3] = target: T3, EngA^MS (MSMEG_3738) (Mycolicibacterium smegmatis, UniProt A0QYP9); experiment: colorimetric Pi release GTPase assay; assay type: biochemical
T3 construct: gene der
T3 sequence (A0QYP9 1-471): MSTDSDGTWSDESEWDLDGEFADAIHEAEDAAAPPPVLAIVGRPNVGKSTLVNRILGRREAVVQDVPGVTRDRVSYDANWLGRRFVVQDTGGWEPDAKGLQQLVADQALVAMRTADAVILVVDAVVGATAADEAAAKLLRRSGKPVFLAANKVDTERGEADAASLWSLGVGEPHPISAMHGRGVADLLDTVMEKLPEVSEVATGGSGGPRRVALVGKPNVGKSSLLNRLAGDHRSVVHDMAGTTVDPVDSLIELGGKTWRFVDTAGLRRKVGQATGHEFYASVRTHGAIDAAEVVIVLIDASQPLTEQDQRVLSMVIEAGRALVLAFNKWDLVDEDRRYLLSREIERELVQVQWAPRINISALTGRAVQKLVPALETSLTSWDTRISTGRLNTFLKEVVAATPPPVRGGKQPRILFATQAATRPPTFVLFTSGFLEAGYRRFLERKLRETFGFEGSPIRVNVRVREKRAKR

[4] = substrate: Nc1nc2c(ncn2[C@@H]2O[C@H](COP(=O)(O)OP(=O)(O)OP(=O)(O)O)[C@@H](O)[C@H]2O)c(=O)[nH]1; experiment: colorimetric Pi release GTPase assay; assay type: biochemical, Mycolicibacterium smegmatis; conditions: 40 mM Tris-Cl pH 8.0, 2 mM MgCl2, 40% glycerol, 1 h, no GDP

T1 sequence (A0QYP9 entry or part of it D154N): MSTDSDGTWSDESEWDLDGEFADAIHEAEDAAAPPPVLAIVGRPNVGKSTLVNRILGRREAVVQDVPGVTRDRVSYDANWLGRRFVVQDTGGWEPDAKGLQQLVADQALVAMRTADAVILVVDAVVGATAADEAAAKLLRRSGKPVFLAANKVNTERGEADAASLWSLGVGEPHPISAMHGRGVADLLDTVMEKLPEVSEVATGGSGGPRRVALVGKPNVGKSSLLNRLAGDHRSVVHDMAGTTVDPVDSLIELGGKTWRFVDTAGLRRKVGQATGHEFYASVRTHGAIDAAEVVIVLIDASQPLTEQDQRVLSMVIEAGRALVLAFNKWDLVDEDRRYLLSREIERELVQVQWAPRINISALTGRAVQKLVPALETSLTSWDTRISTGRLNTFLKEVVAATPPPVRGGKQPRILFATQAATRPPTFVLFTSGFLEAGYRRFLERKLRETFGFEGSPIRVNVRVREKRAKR
T2 sequence (A0QYP9 entry or part of it D331N): as the sequence (A0QYP9 entry or part of it D154N) above, with N154D, D331N counted along it

% reduction in binding affinity vs wild-type [1]: ~ 50%
% reduction in binding affinity vs wild-type [2]: ~ 50%
Molecule: CNc1ccccc1C(=O)O[C@H]1[C@@H](O)[C@H](n2cnc3c(=O)[nH]c(N)nc32)O[C@@H]1COP(=O)(O)OP(=O)(O)O [mant-GDP]

inhibition at 200 µM [3]: 40%
Molecule: Nc1nc2c(ncn2[C@@H]2O[C@H](COP(=O)(O)OP(=O)(O)O)[C@@H](O)[C@H]2O)c(=O)[nH]1 [GDP]

B1: EngA^MS (MSMEG_3738) (Mycolicibacterium smegmatis MC2 155) (protein)
chain: MSTDSDGTWSDESEWDLDGEFADAIHEAEDAAAPPPVLAIVGRPNVGKSTLVNRILGRREAVVQDVPGVTRDRVSYDANWLGRRFVVQDTGGWEPDAKGLQQLVADQALVAMRTADAVILVVDAVVGATAADEAAAKLLRRSGKPVFLAANKVDTERGEADAASLWSLGVGEPHPISAMHGRGVADLLDTVMEKLPEVSEVATGGSGGPRRVALVGKPNVGKSSLLNRLAGDHRSVVHDMAGTTVDPVDSLIELGGKTWRFVDTAGLRRKVGQATGHEFYASVRTHGAIDAAEVVIVLIDASQPLTEQDQRVLSMVIEAGRALVLAFNKWDLVDEDRRYLLSREIERELVQVQWAPRINISALTGRAVQKLVPALETSLTSWDTRISTGRLNTFLKEVVAATPPPVRGGKQPRILFATQAATRPPTFVLFTSGFLEAGYRRFLERKLRETFGFEGSPIRVNVRVREKRAKR
Km [4]: 39 µM
kcat [4]: 8.3e-05 s⁻¹
